What all share (assay type): cell-based
For one assay, the system named is Staph. aureus 10097. Nature of the assay: Antibacterial in vitro activity (MIC), clinical isolate. As to conditions: Staphylococcus aureus; Staph. aureus 10097, clinical isolate; read-out: Minimal Inhibitory Concentration (MIC). An excerpt: (§1) The antibacterial in vitro activity was evidenced on a series of standard and clinically isolated strains. The results are expressed as Minimal Inhibitory Concentration (MIC; μg/mL) and represented hereinbelow in Tables 1 and 2.

Another assay deals with H. Influenze 4028. The assay is described as above. Particulars: H. Influenze 4028, clinical isolate; read-out: Minimal Inhibitory Concentration (MIC).
Source text: as §1

The test system of a further assay is Strept. faecalis 10390. Described as above. Particulars: Enterococcus faecalis; Strept. faecalis 10390, clinical isolate; read-out: Minimal Inhibitory Concentration (MIC).
Source text: as §1

The test system of the next assay is Strept. pneumoniae 4050. The description is as above. Particulars: Streptococcus pneumoniae; Strept. pneumoniae 4050, clinical isolate; read-out: Minimal Inhibitory Concentration (MIC).
Source text: as §1

The next assay has as its system Staph. saprophyt. 3947. The assay is described as above. As to conditions: Staph. saprophyt. 3947, clinical isolate; read-out: Minimal Inhibitory Concentration (MIC).
Source text: as §1

Another assay has as its system Staph. aureus 10099. The description is as above. Particulars: Staphylococcus aureus; Staph. aureus 10099, clinical isolate; read-out: Minimal Inhibitory Concentration (MIC).
Source text: as §1

Another assay concerns Sarcina lutea ATCC 9341. Kind of assay: Activity on Sarcina lutea ATCC 9341.
For assay [1], the system named is Staph. aureus ATCC 6538-P. Kind of assay: Antibacterial in vitro activity (MIC), standard strain. Particulars: Staphylococcus aureus, ATCC6538, read-out: Minimal Inhibitory Concentration (MIC).
Source text: as §1

For a further assay, the system named is Sarcina lutea ATCC-9341. Described as above. Particulars: Micrococcus luteus, ATCC9341; Sarcina lutea ATCC-9341, standard strain; read-out: Minimal Inhibitory Concentration (MIC).
Source text: as §1

The next assay has as its system Pseud. aerug. NCTC-10490. Described as above. Particulars: Pseud. aerug. NCTC-10490, standard strain; read-out: Minimal Inhibitory Concentration (MIC).
Source text: as §1

For another assay, the system named is E. coli ATCC 10536. The description is as above. Particulars: Escherichia coli, ATCC10536; E. coli ATCC 10536, standard strain; read-out: Minimal Inhibitory Concentration (MIC).
Source text: as §1

Assay [2] relates to Klebsiella pneum. NCTC-10499. The description is as above. Particulars: NCTC10499; Klebsiella pneum. NCTC-10499, standard strain; read-out: Minimal Inhibitory Concentration (MIC).
Source text: as §1

Assay [3] relates to Strept. faecalis ATCC-8043. Described as above. As to conditions: Enterococcus faecalis, ATCC8043; Strept. faecalis ATCC-8043, standard strain; read-out: Minimal Inhibitory Concentration (MIC).
Source text: as §1

For the next assay, the system named is Strept. pneumoniae. Kind of assay: MIC (clinical isolates), Examples 1-3. As to conditions: Streptococcus pneumoniae.
Source text: as §1

The next assay concerns Strept. serol. group A. Kind of assay: MIC (clinical isolates), Examples 1-3.
Source text: as §1

Values after ≈ are worked out from the molar mass of the structure shown. Bounds are passed on as bounds.

Regarding `COC1CC(OC2C(C)C(=O)OC(C)C(C)C(O)C(C)C(=NO)C(C)CC(C)C(OC3OC(C)CC(N(C)C)C3O)C2C)OC(C)C1O` (single isomer, unassigned) [Ie, 8-methyl-oleandomycin oxime], the MIC in the assay with Staph. aureus 10097 came out at 0.4 µg/mL (≈ 0.581 µM); in the assay with H. Influenze 4028, 0.4 µg/mL (≈ 0.581 µM); in the assay on Strept. faecalis 10390 it was 0.8 µg/mL (≈ 1.16 µM); in the assay with Strept. pneumoniae 4050, 0.4 µg/mL (≈ 0.581 µM); with Staph. saprophyt. 3947, 1.6 µg/mL (≈ 2.32 µM); in the assay on Staph. aureus 10099, 0.4 µg/mL (≈ 0.581 µM). Also, the MIC in assay [1] stood at 0.2 µg/mL (≈ 0.29 µM); in the assay on Sarcina lutea ATCC-9341 it was 0.2 µg/mL (≈ 0.29 µM); in the assay with Pseud. aerug. NCTC-10490, 50 µg/mL (≈ 72.6 µM); in the assay on E. coli ATCC 10536, 6.2 µg/mL (≈ 9 µM); in assay [2], 50 µg/mL (≈ 72.6 µM); in assay [3], 0.2 µg/mL (≈ 0.29 µM). Besides, the Activity in the assay with Sarcina lutea ATCC 9341 is recorded as 657 u/mg.

On to `COC1CC(OC2C(C)C(=O)OC(C)C(C)C(O)C(C)C(=NO)C3(CO3)CC(C)C(OC3OC(C)CC(N(C)C)C3O)C2C)OC(C)C1O` (stereo not drawn) [Ia, OLEANDOMYCIN OXIME], for which the MIC with Strept. pneumoniae and in the assay on Strept. serol. group A was 0.5 µg/mL (≈ 0.711 µM) throughout.

As to `COC1CC(OC2C(C)C(=O)OC(C)C(C)C=C(C)C(=NO)C3(CO3)CC(C)C(OC3OC(C)CC(N(C)C)C3O)C2C)OC(C)C1O` (stereo not drawn) [Ib, ANHYDRO OLEANDOMYCIN OXIME], the values for the MIC against Strept. pneumoniae and against Strept. serol. group A were 2 µg/mL (≈ 2.92 µM) and 1 µg/mL (≈ 1.46 µM), respectively.

Turning to `C=C1CC(C)C(OC2OC(C)CC(N(C)C)C2O)C(C)C(OC2CC(OC)C(O)C(C)O2)C(C)C(=O)OC(C)C(C)C(O)C(C)C1=NO` (stereo not drawn) [Ic, 8-METHYLENE-OLEANDOMYCIN OXIME], the MIC in the assay on Strept. pneumoniae and in the assay on Strept. serol. group A was 1 µg/mL (≈ 1.46 µM) each time.

Turning to `CO[C@H]1C[C@H](O[C@H]2[C@H](C)[C@@H](O[C@@H]3O[C@H](C)C[C@H](N(C)C)[C@H]3O)[C@@H](C)C[C@@]3(CO3)C(=O)[C@H](C)[C@@H](O)[C@@H](C)[C@@H](C)OC(=O)[C@@H]2C)O[C@@H](C)[C@@H]1O` [oleandomycin phosphate, reference compound], the MIC with Staph. aureus 10097 came out at 0.8 µg/mL; in the assay with Strept. faecalis 10390, 3.1 µg/mL; in the assay with Strept. pneumoniae 4050, 1.6 µg/mL; in the assay with Staph. saprophyt. 3947 it was 1.6 µg/mL; in the assay on Staph. aureus 10099 it was 0.8 µg/mL; in [1], 0.4 µg/mL. Moreover, the MIC in the assay on Sarcina lutea ATCC-9341 was 0.2 µg/mL; in the assay with Pseud. aerug. NCTC-10490, above 50 µg/mL; in the assay with E. coli ATCC 10536, 25 µg/mL; in [2] it was above 50 µg/mL; in assay [3], 0.8 µg/mL.

These data come from US5268462A, “Oleandomycin oximes” (Pliva Farmaceutska, priority 1990, dated 1993).
